According to patent US11986471B2, “Compounds and methods of use” (Tango Therapeutics, Inc., priority 2018, dated 2024):

What was measured:
PRMT5 [1] = biological target: T1, PRMT5 (Homo sapiens, UniProt O14744); experiment: PRMT5 IC50 assay in the presence of SAM as cofactor; type: biochemical
T1 construct: purchased Viva (custom protein)
Outline: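 Enzyme: human PRMT5. Conditions: plus SAM, plus MTA, or cofactor-free. Output: IC50 (μM); Ki via IC50/1.5 (SAM) or IC50/13.5 (MTA).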

PRMT5 [2] = biological target: T1, PRMT5; experiment: PRMT5 IC50 assay in the presence of MTA as cofactor; type: biochemical; details: for IC50: PRMT5, MTA as cofactor; for SAM/MTA Ratio: ratio between the Ki in the presence of SAM and the Ki in the presence of MTA
Outline: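 Each compound is tested on PRMT5 in the presence of SAM, of MTA, and without any cofactor. Ki values are then back-calculated using fixed factors of 1.5 (SAM) and 13.5 (MTA), and the two Ki values are compared as a ratio.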

HAP1 MTAP-intact = experiment: SDMA in-cell western assay, HAP1 MTAP-intact cell line; type: cell-based; details: Homo sapiens
Outline: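 Symmetric dimethylarginine (SDMA) levels were measured by in-cell western in an isogenic HAP1 pair, one expressing endogenous MTAP and one MTAP-null, and IC50 values were derived for each line. Compounds whose IC50 ratio between the lines is 3-fold or more are classed as MTAP-selective.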

PRMT5 [3] = biological target: T1, PRMT5; experiment: PRMT5 IC50 assay with no cofactor; type: biochemical
Outline: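 Three cofactor conditions tested for PRMT5 inhibition: none, MTA and SAM, each giving an IC50. For conversion to Ki, the MTA-condition IC50 is divided by 13.5 and the SAM-condition IC50 by 1.5, and the two Ki values are expressed as a SAM/MTA ratio.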

HAP1 MTAP-deleted = experiment: SDMA in-cell western assay, HAP1 MTAP-deleted cell line; type: cell-based; details: for IC50: Homo sapiens, HAP1 MTAP-deleted cell line; for MTAP Intact/Deleted Ratio: IC50 ratio HAP1 MTAP-intact / HAP1 MTAP-deleted
Outline: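 Symmetric dimethylarginine (SDMA) levels were measured by in-cell western in MTAP-null HAP1 cells, one half of an MTAP-isogenic pair whose partner line expresses endogenous MTAP. Compound potency is reported as IC50.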

T1 sequence (O14744 whole entry): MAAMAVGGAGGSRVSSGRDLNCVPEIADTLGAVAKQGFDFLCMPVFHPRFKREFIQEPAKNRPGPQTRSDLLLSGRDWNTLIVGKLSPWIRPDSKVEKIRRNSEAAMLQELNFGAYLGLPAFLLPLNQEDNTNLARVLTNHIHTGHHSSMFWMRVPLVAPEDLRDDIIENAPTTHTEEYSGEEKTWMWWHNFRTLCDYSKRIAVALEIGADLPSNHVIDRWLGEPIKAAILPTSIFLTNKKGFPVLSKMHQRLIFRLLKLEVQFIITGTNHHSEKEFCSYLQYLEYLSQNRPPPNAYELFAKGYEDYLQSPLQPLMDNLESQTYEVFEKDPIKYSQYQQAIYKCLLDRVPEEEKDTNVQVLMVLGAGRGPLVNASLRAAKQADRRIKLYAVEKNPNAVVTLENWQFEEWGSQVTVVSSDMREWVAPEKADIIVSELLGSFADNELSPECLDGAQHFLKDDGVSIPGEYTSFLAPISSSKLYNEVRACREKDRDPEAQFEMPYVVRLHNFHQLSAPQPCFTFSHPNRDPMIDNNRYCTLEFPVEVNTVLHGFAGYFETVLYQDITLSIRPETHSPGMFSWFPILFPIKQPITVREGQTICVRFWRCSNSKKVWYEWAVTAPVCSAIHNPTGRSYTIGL
T1 sequence (Q9BQA1 whole entry partner): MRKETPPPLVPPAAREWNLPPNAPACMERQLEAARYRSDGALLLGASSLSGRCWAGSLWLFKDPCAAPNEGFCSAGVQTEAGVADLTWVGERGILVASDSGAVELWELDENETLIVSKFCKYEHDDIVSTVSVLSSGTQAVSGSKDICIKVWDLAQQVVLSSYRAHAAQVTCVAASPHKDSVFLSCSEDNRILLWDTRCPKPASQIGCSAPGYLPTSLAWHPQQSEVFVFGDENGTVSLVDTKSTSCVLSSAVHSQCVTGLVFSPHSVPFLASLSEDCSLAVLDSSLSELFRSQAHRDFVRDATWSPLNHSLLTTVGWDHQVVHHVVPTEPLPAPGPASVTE

Row | SMILES | IC50 (PRMT5 [1]) | IC50 (PRMT5 [2]) | IC50 (HAP1 MTAP-intact) | IC50 (PRMT5 [3]) | IC50 (HAP1 MTAP-deleted) | SAM/MTA Ratio (PRMT5 [2]) | MTAP Intact/Deleted Ratio (HAP1 MTAP-deleted)
1 | CC(=O)N1CCC(Nc2cc(C(=O)NC[C@H](O)CN3CCc4cc(OCc5ocnc5C)ccc4C3)cc(N3CCN(C)CC3)n2)CC1 [Compound 584, 2-[(1-acetylpiperidin-4-yl)amino]-N-[(2S)-2-hydroxy-3-{6-[(4-methyl-1,3-oxazol-5-yl)methoxy]-1,2,3,4-tetrahydroisoquinolin-2-yl}propyl]-6-(4-methylpiperazin-1-yl)pyridine-4-carboxamide] | 50 to 500 nM | 50 to 500 nM | ≥ 10000 nM | 50 to 500 nM | 1000 to 10000 nM | A (a Ki ratio greater than or equal to 10 fold between the Ki in the presence of SAM and the Ki in the presence of MTA) | B* (an IC50 ratio greater than or equal to 3 fold but lower than 10 fold between the IC50 in the HAP1 MTAP-intact cell line and the HAP1 MTAP-deleted cell line)
2 | CC(=O)N1CCC(Nc2cc(C(=O)NC[C@H](O)CN3CCc4cc(OCc5ocnc5C)ccc4C3)cc(N3CCCCC3)n2)CC1 [Compound 587, 2-[(1-acetylpiperidin-4-yl)amino]-N-[(2S)-2-hydroxy-3-{6-[(4-methyl-1,3-oxazol-5-yl)methoxy]-1,2,3,4-tetrahydroisoquinolin-2-yl}propyl]-6-(piperidin-1-yl)pyridine-4-carboxamide] | 50 to 500 nM | 50 to 500 nM | 1000 to 10000 nM | 500 to 5000 nM | < 1000 nM | A (a Ki ratio greater than or equal to 10 fold between the Ki in the presence of SAM and the Ki in the presence of MTA) | A* (an IC50 ratio greater than or equal to 10 fold between the IC50 in the HAP1 MTAP-intact cell line and the HAP1 MTAP-deleted cell line)
3 | CC(=O)N1CCC(Nc2cc(C(=O)NC[C@H](O)CN3CCc4c(ccc(OCc5ocnc5C)c4C)C3)cc(N3CCN(C(C)=O)CC3)n2)CC1 [Compound 590, 2-(4-acetylpiperazin-1-yl)-6-[(1-acetylpiperidin-4-yl)amino]-N-[(2S)-2-hydroxy-3-{5-methyl-6-[(4-methyl-1,3-oxazol-5-yl)methoxy]-1,2,3,4-tetrahydroisoquinolin-2-yl}propyl]pyridine-4-carboxamide] | 50 to 500 nM | 50 to 500 nM | ≥ 10000 nM | 500 to 5000 nM | 1000 to 10000 nM | A (a Ki ratio greater than or equal to 10 fold between the Ki in the presence of SAM and the Ki in the presence of MTA) | C* (an IC50 ratio of less than 3 fold between the IC50 in the HAP1 MTAP-intact cell line and the HAP1 MTAP-deleted cell line)
4 | CC(=O)N1CCC(Nc2cc(C(=O)NC[C@H](O)CN3CCc4c(ccc(OCc5ocnc5C)c4C)C3)cc(N3CCN(C)CC3)n2)CC1 [Compound 593] | 50 to 500 nM | 50 to 500 nM | ≥ 10000 nM | 500 to 5000 nM | 1000 to 10000 nM | A (a Ki ratio greater than or equal to 10 fold between the Ki in the presence of SAM and the Ki in the presence of MTA) | B* (an IC50 ratio greater than or equal to 3 fold but lower than 10 fold between the IC50 in the HAP1 MTAP-intact cell line and the HAP1 MTAP-deleted cell line)
5 | CC(=O)N1CCC(Nc2cc(C(=O)NC[C@H](O)CN3CCc4cc(OCc5ocnc5C)ccc4C3)cc(N3CCN(C(C)=O)CC3)n2)CC1 [Compound 594, 2-(4-acetylpiperazin-1-yl)-6-[(1-acetylpiperidin-4-yl)amino]-N-[(2S)-2-hydroxy-3-{6-[(4-methyl-1,3-oxazol-5-yl)methoxy]-1,2,3,4-tetrahydroisoquinolin-2-yl}propyl]pyridine-4-carboxamide] | 50 to 500 nM | 50 to 500 nM | ≥ 10000 nM | 500 to 5000 nM | 1000 to 10000 nM | A (a Ki ratio greater than or equal to 10 fold between the Ki in the presence of SAM and the Ki in the presence of MTA) | C* (an IC50 ratio of less than 3 fold between the IC50 in the HAP1 MTAP-intact cell line and the HAP1 MTAP-deleted cell line)
6 | CC(=O)N1CCC(Nc2cc(C(=O)NC[C@H](O)CN3CCc4c(ccc(OCc5ocnc5C)c4C)C3)cc(N3CCCCC3)n2)CC1 [Compound 595] | 50 to 500 nM | < 50 nM | 1000 to 10000 nM | 500 to 5000 nM | < 1000 nM | A (a Ki ratio greater than or equal to 10 fold between the Ki in the presence of SAM and the Ki in the presence of MTA) | A* (an IC50 ratio greater than or equal to 10 fold between the IC50 in the HAP1 MTAP-intact cell line and the HAP1 MTAP-deleted cell line)
7 | COc1cnc(NC2CCN(C(C)=O)CC2)cc1C(=O)NC[C@H](O)CN1CCc2cc(OCc3ocnc3C)ccc2C1 [Compound 597, (S)-2-((1-acetylpiperidin-4-yl)amino)-N-(2-hydroxy-3-(6-((4-methyloxazol-5-yl)methoxy)-3,4-dihydroisoquinolin-2(1H)-yl)propyl)-5-methoxyisonicotinamide] | 50 to 500 nM | < 50 nM | 1000 to 10000 nM | 50 to 500 nM | < 1000 nM | A (a Ki ratio greater than or equal to 10 fold between the Ki in the presence of SAM and the Ki in the presence of MTA) | B* (an IC50 ratio greater than or equal to 3 fold but lower than 10 fold between the IC50 in the HAP1 MTAP-intact cell line and the HAP1 MTAP-deleted cell line)
8 | Cc1ncoc1COc1ccc2c(c1)CCN(C[C@@H](O)CNC(=O)c1cc(NC3CCC3)nc(N3C4CCC3COC4)c1)C2 [Compound 598] | 50 to 500 nM | 50 to 500 nM | < 1000 nM | 500 to 5000 nM | < 1000 nM | A (a Ki ratio greater than or equal to 10 fold between the Ki in the presence of SAM and the Ki in the presence of MTA) | C* (an IC50 ratio of less than 3 fold between the IC50 in the HAP1 MTAP-intact cell line and the HAP1 MTAP-deleted cell line)

Second part, led by results:

Row | IC50 (PRMT5 [1]) | IC50 (PRMT5 [2]) | IC50 (HAP1 MTAP-intact) | IC50 (PRMT5 [3]) | IC50 (HAP1 MTAP-deleted) | SMILES | SAM/MTA Ratio (PRMT5 [2]) | MTAP Intact/Deleted Ratio (HAP1 MTAP-deleted)
9 | 50 to 500 nM | 50 to 500 nM | ≥ 10000 nM | 500 to 5000 nM | 1000 to 10000 nM | CC(=O)N1CC(Nc2cc(C(=O)NC[C@H](O)CN3CCc4cc(OCc5cnco5)ccc4C3)nc(N3CCOCC3)n2)C1 [Compound 583] | A (a Ki ratio greater than or equal to 10 fold between the Ki in the presence of SAM and the Ki in the presence of MTA) | C* (an IC50 ratio of less than 3 fold between the IC50 in the HAP1 MTAP-intact cell line and the HAP1 MTAP-deleted cell line)
10 | 50 to 500 nM | 50 to 500 nM | ≥ 10000 nM | 500 to 5000 nM | 1000 to 10000 nM | Cc1c(OCc2cnco2)ccc2c1CCN(C[C@@H](O)CNC(=O)c1ccnc(NC3CN(C(=O)C4CCC4)C3)c1)C2 [Compound 586, (S)-2-((1-(cyclobutanecarbonyl)azetidin-3-yl)amino)-N-(2-hydroxy-3-(5-methyl-6-(oxazol-5-ylmethoxy)-3N-dihydroisoquinolin-2(1H)-yl)propyl)isonicotinamide] | A (a Ki ratio greater than or equal to 10 fold between the Ki in the presence of SAM and the Ki in the presence of MTA) | B* (an IC50 ratio greater than or equal to 3 fold but lower than 10 fold between the IC50 in the HAP1 MTAP-intact cell line and the HAP1 MTAP-deleted cell line)
11 | 50 to 500 nM | 50 to 500 nM | ≥ 10000 nM | 500 to 5000 nM | 1000 to 10000 nM | Cc1c(OCc2cnco2)ccc2c1CCN(C[C@@H](O)CNC(=O)c1ccnc(NC3CN(C(=O)C4CC4)C3)c1)C2 [Compound 588, (S)-2-((1-(cyclopropanecarbonyl)azetidin-3-yl)amino)-N-(2-hydroxy-3-(5-methyl-6-(oxazol-5-ylmethoxy)-3,4-dihydroisoquinolin-2(1H)-yl)propyl)isonicotinamide] | A (a Ki ratio greater than or equal to 10 fold between the Ki in the presence of SAM and the Ki in the presence of MTA) | C* (an IC50 ratio of less than 3 fold between the IC50 in the HAP1 MTAP-intact cell line and the HAP1 MTAP-deleted cell line)
12 | 50 to 500 nM | 50 to 500 nM | ≥ 10000 nM | 500 to 5000 nM | < 1000 nM | Cc1c(OCc2cnco2)ccc2c1CCN(C[C@@H](O)CNC(=O)c1cc(N[C@H]3CC[C@H](C(=O)N4CCCCC4)CC3)ncn1)C2 [Compound 589, N-[(2S)-2-hydroxy-3-{5-methyl-6-[(1,3-oxazol-5-yl)methoxy]-1,2,3,4-tetrahydroisoquinolin-2-yl}propyl]-6-{((1r,4r)-4-(piperidine-1-carbonyl)cyclohexyl]amino}pyrimidine-4-carboxamide] | A (a Ki ratio greater than or equal to 10 fold between the Ki in the presence of SAM and the Ki in the presence of MTA) | A* (an IC50 ratio greater than or equal to 10 fold between the IC50 in the HAP1 MTAP-intact cell line and the HAP1 MTAP-deleted cell line)
13 | 50 to 500 nM | 50 to 500 nM | ≥ 10000 nM | 500 to 5000 nM | < 1000 nM | COCCN(C)c1cc(C(=O)NC[C@H](O)CN2CCc3c(ccc(OCc4ocnc4C)c3C)C2)cc(NC2CCN(C(C)=O)CC2)n1 [Compound 592] | A (a Ki ratio greater than or equal to 10 fold between the Ki in the presence of SAM and the Ki in the presence of MTA) | A* (an IC50 ratio greater than or equal to 10 fold between the IC50 in the HAP1 MTAP-intact cell line and the HAP1 MTAP-deleted cell line)
